Reference: PubChem BioAssay (NCI)
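96-well plates; 48 h exposure; 5 concentrations. Endpoints by linear interpolation between flanking doses. Not reached: highest tested concentration assigned. TGI: concentration producing complete growth inhibition.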

Assays:
Test in all cases: NCI-60 cell line screen, 48 h
[1] = system: EKVX NSCLC
[2] = system: NCI-H23 lung
[3] = system: CAKI-1 renal
[4] = system: SN12C renal
[5] = system: K-562 leukemia
[6] = system: SNB-78 CNS
[7] = system: NCI-H460 lung
[8] = system: OVCAR-5 ovarian
[9] = system: SK-MEL-28 melanoma
[10] = system: SK-OV-3 ovarian
[11] = system: COLO 205 colon
[12] = system: NCI-H226 lung
[13] = system: ACHN renal
[14] = system: U251 CNS
[15] = system: SF-295 CNS
[16] = system: DMS 114 small cell lung
[17] = system: HL-60(TB) leukemia
[18] = system: M14 melanoma
[19] = system: HT29 colon
[20] = system: SNB-75 CNS
[21] = system: OVCAR-8 ovarian
[22] = system: DLD-1 colon
[23] = system: A498 renal
[24] = system: KM12 colon
[25] = system: M19-MEL melanoma
[26] = system: MOLT-4 leukemia
[27] = system: SF-268 CNS
[28] = system: CCRF-CEM leukemia
[29] = system: LXFL 529 NSCLC
[30] = system: UACC-257 melanoma
[31] = system: MALME-3M melanoma
[32] = system: LOX IMVI melanoma
[33] = system: HOP-62 NSCLC
[34] = system: SF-539 CNS
[35] = system: SK-MEL-2 melanoma
[36] = system: HOP-18 NSCLC
[37] = system: UACC-62 melanoma
[38] = system: OVCAR-4 ovarian
[39] = system: RPMI-8226 leukemia
[40] = system: SNB-19 CNS
[41] = system: OVCAR-3 ovarian
[42] = system: HCT-116 colon
[43] = system: SK-MEL-5 melanoma
[44] = system: SW-620 colon
[45] = system: UO-31 renal
[46] = system: A549 NSCLC
[47] = system: IGROV1 ovarian
[48] = system: HCC-2998 colon
[49] = system: NCI-H522 lung
[50] = system: KM20L2 colon
[51] = system: SR leukemia
[52] = system: HCT-15 colon
[53] = system: HOP-92 NSCLC
[54] = system: TK-10 renal
[55] = system: DMS 273 small cell lung
[56] = system: XF 498 CNS
[57] = system: RXF 393 renal
[58] = system: 786-0 renal

Work on CCOC(=O)C1=C(C)N(C2OC(COC(=O)c3ccccc3)C(OC(=O)c3ccccc3)C2OC(=O)c2ccccc2)C(=S)NC1c1ccccc1 (stereo unspecified) yielded a TGI [1] of 62.2 µM, a TGI [2] of over 100 µM and a TGI [3] of 79.4 µM. For the same compound, the TGI [4] was over 100 µM, the TGI [5] was 91.7 µM and the TGI [6] was over 100 µM. It also gave a TGI [7] of over 100 µM, a TGI [8] of over 100 µM and a TGI [9] of over 100 µM. The TGI [10] was over 100 µM, the TGI [11] was over 100 µM and the TGI [12] was over 100 µM. For the same compound, the TGI [13] was over 100 µM, the TGI [14] was over 100 µM and the TGI [15] was over 100 µM. For the same compound, the TGI [16] was 97.2 µM, the TGI [17] was 33.9 µM and the TGI [18] was 93.2 µM. The TGI [19] was over 100 µM, the TGI [20] was over 100 µM and the TGI [21] was over 100 µM. It also gave a TGI [22] of over 100 µM, a TGI [23] of over 100 µM and a TGI [24] of over 100 µM. For the same compound, the TGI [25] was over 100 µM, the TGI [26] was 80.6 µM and the TGI [27] was over 100 µM. The TGI [28] was over 100 µM, the TGI [29] was over 100 µM and the TGI [30] was over 100 µM. For the same compound, the TGI [31] was 78.8 µM, the TGI [32] was over 100 µM and the TGI [33] was over 100 µM. For the same compound, the TGI [34] was over 100 µM, the TGI [35] was over 100 µM and the TGI [36] was over 100 µM. For the same compound, the TGI [37] was over 100 µM, the TGI [38] was over 100 µM and the TGI [39] was 45.2 µM. The TGI [40] was over 100 µM, the TGI [41] was 71.9 µM and the TGI [42] was over 100 µM. The TGI [43] was 42.8 µM, the TGI [44] was over 100 µM and the TGI [45] was 99.4 µM. The TGI [46] was over 100 µM, the TGI [47] was over 100 µM and the TGI [48] was over 100 µM. For the same compound, the TGI [49] was 66.1 µM, the TGI [50] was over 100 µM and the TGI [51] was 73.2 µM.

CN/N=C(\C(=O)Nc1ccc(C)c(C)c1)C(C(=O)OC)c1nc2ccc([N+](=O)[O-])cc2[nH]c1=O (stereo unspecified) showed a TGI [1] of over 100 µM, a TGI [2] of over 100 µM and a TGI [3] of over 100 µM. For the same compound, the TGI [4] was over 100 µM, the TGI [5] was over 100 µM and the TGI [6] was over 100 µM. It also gave a TGI [7] of over 100 µM, a TGI [8] of over 100 µM and a TGI [52] of over 100 µM. The TGI [9] was over 100 µM, the TGI [10] was over 100 µM and the TGI [11] was over 100 µM. The TGI [12] was over 100 µM, the TGI [13] was over 100 µM and the TGI [14] was over 100 µM. For the same compound, the TGI [15] was over 100 µM, the TGI [16] was over 100 µM and the TGI [17] was over 100 µM. It also gave a TGI [53] of over 100 µM, a TGI [18] of over 100 µM and a TGI [54] of over 100 µM. For the same compound, the TGI [19] was over 100 µM, the TGI [20] was over 100 µM and the TGI [21] was over 100 µM. It also gave a TGI [22] of over 100 µM, a TGI [23] of over 100 µM and a TGI [24] of over 100 µM. It also gave a TGI [55] of over 100 µM, a TGI [25] of over 100 µM and a TGI [56] of over 100 µM. The TGI [26] was over 100 µM, the TGI [27] was over 100 µM and the TGI [28] was over 100 µM. The TGI [29] was over 100 µM, the TGI [30] was over 100 µM and the TGI [32] was over 100 µM. The TGI [33] was over 100 µM, the TGI [34] was over 100 µM and the TGI [35] was over 100 µM. For the same compound, the TGI [37] was over 100 µM, the TGI [38] was over 100 µM and the TGI [39] was over 100 µM. The TGI [40] was over 100 µM, the TGI [57] was over 100 µM and the TGI [42] was over 100 µM. The TGI [43] was over 100 µM, the TGI [44] was over 100 µM and the TGI [45] was over 100 µM. The TGI [46] was over 100 µM, the TGI [47] was over 100 µM and the TGI [48] was over 100 µM. The TGI [49] was 70.9 µM, the TGI [50] was over 100 µM and the TGI [51] was over 100 µM.

Work on S=c1nc[nH]c2c1ncn2C1CCCO1 (stereo unspecified) yielded a TGI [2] of over 100 µM, a TGI [3] of over 100 µM and a TGI [4] of over 100 µM. The TGI [5] was over 100 µM, the TGI [7] was over 100 µM and the TGI [8] was over 100 µM. It also gave a TGI [52] of over 100 µM, a TGI [9] of over 100 µM and a TGI [10] of over 100 µM. The TGI [11] was over 100 µM, the TGI [58] was over 100 µM and the TGI [13] was over 100 µM. It also gave a TGI [14] of over 100 µM, a TGI [15] of over 100 µM and a TGI [16] of over 100 µM. It also gave a TGI [17] of over 100 µM, a TGI [53] of over 100 µM and a TGI [18] of over 100 µM. It also gave a TGI [54] of over 100 µM, a TGI [19] of over 100 µM and a TGI [20] of over 100 µM. It also gave a TGI [21] of over 100 µM, a TGI [22] of over 100 µM and a TGI [23] of over 100 µM. For the same compound, the TGI [24] was over 100 µM, the TGI [55] was over 100 µM and the TGI [26] was over 100 µM. For the same compound, the TGI [27] was over 100 µM, the TGI [28] was over 100 µM and the TGI [29] was over 100 µM. The TGI [31] was over 100 µM, the TGI [32] was over 100 µM and the TGI [33] was over 100 µM. For the same compound, the TGI [34] was over 100 µM, the TGI [35] was over 100 µM and the TGI [36] was over 100 µM. For the same compound, the TGI [37] was over 100 µM, the TGI [38] was over 100 µM and the TGI [39] was over 100 µM. The TGI [40] was over 100 µM, the TGI [57] was over 100 µM and the TGI [41] was over 100 µM. It also gave a TGI [42] of over 100 µM, a TGI [43] of over 100 µM and a TGI [44] of over 100 µM. For the same compound, the TGI [45] was over 100 µM, the TGI [46] was over 100 µM and the TGI [47] was over 100 µM. The TGI [48] was over 100 µM, the TGI [49] was over 100 µM and the TGI [50] was over 100 µM.
